Reference: article PMC9995496, “A screen for MeCP2-TBL1 interaction inhibitors using a luminescence-based assay” (Scientific Reports, 2023)
Counter-ions that a name gives are not always drawn. Like-named read-outs stand apart in the source and are kept apart here.

System: PRKACA-PRKAR2A interaction (SmBiT-PRKACA / LgBiT-PRKAR2A), protein kinase A
Set-up: NanoLuc complementation counter-screen in cell extract, PRKACA with PRKAR2A, loss of luminescence, detects NanoLuc interference
Conditions: counter-screen for NanoLuc interference, 0.5 h, 20 µM, inhibitor

## NC(=O)Nc1sc(-c2ccc(F)cc2)cc1C(N)=O [UM0127870:03, TPCA-1]
  Inh (PKA): 19.86%

## COc1ccc(Cl)cc1NC(=O)Nc1cc(C)nc2ccccc12 [UM0127873:03, PQ 401]
  Inh (PKA): 19.94%

## O=C(Nc1nc2ccccc2n1CCN1CCOCC1)c1cccc([N+](=O)[O-])c1 [UM0127874:03, IRAK-1-4 Inhibitor I]
  Inh (PKA): 12.44%

## CC(C)(C)c1nc2c3cc[nH]c(=O)c3c3cc(F)ccc3c2[nH]1 [UM0127875:02, Pyridone 6]
  Inh (PKA): 10.77%

## COc1cc2ncnc(Nc3ccc(O)c(Br)c3)c2cc1OC [UM0127876:02, WHI-P154]
  Inh (PKA): 9.14%

## O=c1cc(N2CCOCC2)oc2c(-c3ccccc3)cccc12 [UM0127884:02, LY 294002]
  Inh (PKA): 0.5276%

## N#C/C(=C(/N)Sc1ccc(N)cc1)c1ccccc1C(F)(F)F [UM0127888:02, SL-327]
  Inh (PKA): 49.94%

## Cc1[nH]c(/C=C2\C(=O)Nc3ccc(S(=O)(=O)N(C)c4cccc(Cl)c4)cc32)c(C)c1C(=O)N1CCN(C)CC1 [UM0127889:02, SU11274]
  Inh (PKA): 71.51%

## Nc1ncnc2n[nH]c(Nc3ccc(F)cc3)c12 [UM0127890:04, CGP 57380]
  Inh (PKA): 5.777%

## Nc1ccc2ncnc(NCCc3ccc(Oc4ccccc4)cc3)c2c1 [UM0127892:02, QNZ (EVP4593)]
  Inh (PKA): 24.11%

## COc1cccc(-c2cc(=O)c3ccccc3o2)c1N [UM0127895:04, PD98059]
  Inh (PKA): 12.91%

## Oc1cccc(-c2nc(N3CCOCC3)c3oc4ncccc4c3n2)c1 [UM0127905:03, PI-103]
Inh (PKA)
  Inh (PKA): 4.016%

## C[S+]([O-])c1ccc(-c2nc(-c3ccc(F)cc3)c(-c3ccncc3)[nH]2)cc1 (stereo not shown) [UM0127917:04, SB 203580]
Inh (PKA)
  Inh (PKA): 16.51%

## c1ccc(-c2[nH]ncc2-c2ccnc3ccccc23)nc1 [UM0127931:02, LY364947]
  Inh (PKA): 7.119%

## N#C/C(=C\c1ccc(O)c(O)c1)C(=O)NCc1ccccc1 [UM0127932:03, AG-490]
  Inh (PKA): 36.26%

## COc1cc2ncc(-c3ccccc3)nc2cc1OC [UM0127935:03, Tyrphostin AG 1296]
  Inh (PKA): 8.299%

## Cc1nc(Nc2ncc(C(=O)Nc3c(C)cccc3Cl)s2)cc(N2CCN(CCO)CC2)n1 [UM0127943:04, Dasatinib (BMS-354825)]
  Inh (PKA): 9.592%

## C#Cc1cccc(Nc2ncnc3cc(OCCOC)c(OCCOC)cc23)c1 [UM0127944:02, Erlotinib]
Inh (PKA)
  Inh (PKA): 7.481%

## Cc1cc(C(=O)NOCCO)c(Nc2ccc(I)cc2F)n(C)c1=O [UM0127946:02, AZD8330]
  Inh (PKA): 1.892%

## Cc1ccc(-n2nc(C(C)(C)C)cc2NC(=O)Nc2ccc(OCCN3CCOCC3)c3ccccc23)cc1 [UM0127947:02, BIRB 796 (Doramapimod)]
  Inh (PKA): 10.73%

## CCCS(=O)(=O)Nc1ccc(F)c(C(=O)c2c[nH]c3ncc(Cl)cc23)c1F [UM0127949:04, PLX-4720]
  Inh (PKA): 29.68%

## CNC(=O)c1cc(Oc2ccc(NC(=O)Nc3ccc(Cl)c(C(F)(F)F)c3)cc2)ccn1 [UM0127950:06, Sorafenib]
Inh (PKA)
  Inh (PKA): 5.105%

## Cc1ccc(NC(=O)c2ccc(CN3CCN(C)CC3)cc2)cc1Nc1nccc(-c2cccnc2)n1 [UM0127952:03, Imatinib (STI571)]
Inh (PKA)
  Inh (PKA): 7.189%

## CS(=O)(=O)CCNCc1ccc(-c2ccc3ncnc(Nc4ccc(OCc5cccc(F)c5)c(Cl)c4)c3c2)o1 [UM0127953:02, Lapatinib]
Inh (PKA)
  Inh (PKA): 55.05%

## Cc1ccc(NC(=O)c2ccc(CN3CCN(C)CC3)cc2)cc1Nc1nc(-c2cccnc2)cs1 [UM0127954:03, Masitinib (AB1010)]
  Inh (PKA): 15.54%

## Cc1cn(-c2cc(NC(=O)c3ccc(C)c(Nc4nccc(-c5cccnc5)n4)c3)cc(C(F)(F)F)c2)cn1 [UM0127956:03, Nilotinib(AMN-107)]
  Inh (PKA): 17.26%

## Cc1ccc(Nc2nccc(N(C)c3ccc4c(C)n(C)nc4c3)n2)cc1S(N)(=O)=O [UM0127957:02, Pazopanib (GW-786034)]
Inh (PKA)
  Inh (PKA): 11.23%

## CC[C@H](CO)Nc1nc(NCc2ccccc2)c2ncn(C(C)C)c2n1 [UM0127958:02, Roscovitine (Seliciclib,CYC202)]
  Inh (PKA): 10.31%

## Cc1cc(Nc2cc(N3CCN(C)CC3)nc(Sc3ccc(NC(=O)C4CC4)cc3)n2)n[nH]1 [UM0127961:02, VX-680 (MK-0457,Tozasertib)]
  Inh (PKA): 9.039%

## COc1cc2/c(=N/c3ccc(Br)cc3F)nc[nH]c2cc1OCC1CCN(C)CC1 [UM0127962:02, Vandetanib (ZD6474)]
  Inh (PKA): 5.275%

## Clc1ccc(Nc2nnc(Cc3ccncc3)c3ccccc23)cc1 [UM0127963:02, Vatalanib (PTK787) 2HCl]
Inh (PKA)
  Inh (PKA): 26.41%

## Clc1ccc(Nc2nnc(Cc3ccncc3)c3ccccc23)cc1 [UM0127963:03, Vatalanib]
Inh (PKA)
  Inh (PKA): 29.07%

## NC(=O)c1ccc(N(C(N)=O)c2c(F)cccc2F)nc1-c1ccc(F)cc1F [UM0127964:03, VX-702]
  Inh (PKA): 6.199%

## Cc1ccc(NC(=O)c2cccc(C(C)(C)C#N)c2)cc1Nc1ccc2ncn(C)c(=O)c2c1 [UM0127965:02, AZ 628]
  Inh (PKA): 24.58%

## Cc1cccc(-c2[nH]c(C(C)(C)C)nc2-c2ccc3c(c2)OCO3)n1 [UM0127976:02, SB-505124 hydrochloride]
Inh (PKA)
  Inh (PKA): 12.14%

## C[C@@H]1CCN(C(=O)CC#N)C[C@@H]1N(C)c1ncnc2[nH]ccc12 [UM0128176:02, Tofacitinib (CP-690550,Tasocitinib)]
Inh (PKA)
  Inh (PKA): -2.944%

## O=C(O)c1ccnc(C(=O)O)c1 [UM0128207:03, 2,4-Pyridinedicarboxylic Acid]
  Inh (PKA): 1.396%

## CCCS(=O)(=O)Nc1ccc(F)c(C(=O)c2c[nH]c3ncc(-c4ccc(Cl)cc4)cc23)c1F [UM0128310:03, Vemurafenib (PLX4032, RG7204)]
  Inh (PKA): 34.51%

## CC(/C=C/C(=O)NO)=C\[C@@H](C)C(=O)c1ccc(N(C)C)cc1 [UM0128540:02, Trichostatin A (TSA)]
  Inh (PKA): 3.519%

## O=C1CCc2c(ccc3ccccc23)O1 [UM0128542:02, Splitomicin]
  Inh (PKA): 1.175%

## O=C(CCCCCN1C(=O)c2cccc3cccc(c23)C1=O)NO [UM0128546:02, Scriptaid]
  Inh (PKA): 3.14%

## Nc1ncn([C@H]2C[C@H](O)[C@@H](CO)O2)c(=O)n1 [UM0128548:04, Decitabine (NSC127716, 5AZA-CdR)]
  Inh (PKA): 0.991%

## O=c1ncccn1[C@@H]1O[C@H](CO)[C@@H](O)[C@H]1O [UM0128549:02, Zebularine]
  Inh (PKA): -0.4631%

## O=C(c1ccc(Cl)cc1Cl)n1nnc2ccccc21 [UM0128552:02, ITSA-1 (ITSA1)]
  Inh (PKA): 13.93%

## CCCC(CCC)C(=O)O [UM0128554:02, Valproic acid]
Inh (PKA)
  Inh (PKA): -0.4434%

## NC(=O)C1CCCc2c1[nH]c1ccc(Cl)cc21 (stereo not shown) [UM0128555:02, EX 527 (SEN0014196)]
  Inh (PKA): 3.362%

## Oc1ccc(/C=C/c2cc(O)cc(O)c2)cc1 [UM0128556:03, Resveratrol]
  Inh (PKA): 25.41%

## Oc1cc(O)cc(/C=C/c2ccc(O)c(O)c2)c1 [UM0128559:03, Piceatannol]
  Inh (PKA): 17.81%

## CCCCCCCCCCCCCCCc1cccc(O)c1C(=O)O [UM0128565:02, Anacardic acid]
  Inh (PKA): 5.402%

## CC(C)C(=O)SCCCCCCC(=O)Nc1nc(-c2ccccc2)cs1 [UM0128574:02, NCH 51]
  Inh (PKA): 3.39%

## CC(=O)Nc1ccc(C(=O)Nc2ccccc2N)cc1 [UM0128575:02, CI994 (Tacedinaline)]
  Inh (PKA): -1.752%

## O=Nc1ccc(O)c2ncccc12 [UM0128576:03, NSC 3852]
  Inh (PKA): 10.59%

## COc1cc2c(NC3CCN(C(C)C)CC3)nc(C3CCCCC3)nc2cc1OCCCN1CCCC1 [UM0128581:02, UNC0638]
  Inh (PKA): 0.9337%

## CCN(c1cc(-c2ccc(CN3CCOCC3)cc2)cc(C(=O)NCc2c(C)cc(C)[nH]c2=O)c1C)C1CCOCC1 [UM0129937:03, EPZ-6438]
  Inh (PKA): 4.351%

## COc1cc2c(NC3CCN(C4CCCCC4)CC3)nc(N3CCCN(C(C)C)CC3)nc2cc1OCCCN1CCCCC1 [UM0129939:02, UNC 0646]
  Inh (PKA): 0.2399%

## Cn1cnc2c(F)c(Nc3ccc(Br)cc3Cl)c(C(=O)NOCCO)cc21 [UM0130968:04, AZD6244 (Selumetinib)]
  Inh (PKA): 16.5%

## O=C(NOCC1CC1)c1ccc(F)c(F)c1Nc1ccc(I)cc1Cl [UM0130972:02, PD184352 (CI-1040)]
  Inh (PKA): 70.13%

## COc1cc2nccc(Oc3ccc(NC(=O)NC4CC4)c(Cl)c3)c2cc1C(N)=O [UM0130973:02, Lenvatinib (E7080)]
  Inh (PKA): 3.422%

## Cn1cc(C2=C(c3cn(C4CCN(Cc5ccccn5)CC4)c4ccccc34)C(=O)NC2=O)c2ccccc21 [UM0130974:02, Enzastaurin (LY317615)]
  Inh (PKA): 49.88%

## C#Cc1cccc(Nc2ncnc3cc(OCCOC)c(OCCOC)cc23)c1 [UM0130975:02, Erlotinib Hydrochloride]
Inh (PKA)
  Inh (PKA): 10.54%

## CS(=O)(=O)N1CCN(Cc2cc3nc(-c4cccc5[nH]ncc45)nc(N4CCOCC4)c3s2)CC1 [UM0130976:02, GDC-0941]
Inh (PKA)
  Inh (PKA): 3.012%

## CC(=O)Nc1cccc(-n2c(=O)n(C3CC3)c(=O)c3c(Nc4ccc(I)cc4F)n(C)c(=O)c(C)c32)c1 [UM0130977:03, Trametinib (GSK1120212)]
  Inh (PKA): 2.214%

## Cc1ccc(NC(=O)c2ccc(CN3CCN(C)CC3)cc2)cc1Nc1nccc(-c2cccnc2)n1 [UM0130978:02, Imatinib Mesylate (STI571)]
Inh (PKA)
  Inh (PKA): 10.22%

## CS(=O)(=O)CCNCc1ccc(-c2ccc3ncnc(Nc4ccc(OCc5cccc(F)c5)c(Cl)c4)c3c2)o1 [UM0130979:02, Lapatinib Ditosylate]
Inh (PKA)
  Inh (PKA): 54.72%

## Nc1cccc2c1CN(C1CCC(=O)NC1=O)C2=O (stereo not shown) [UM0130980:03, Lenalidomide (CC-5013)]
  Inh (PKA): -1.488%

## NC1(c2ccc(-c3nc4ccn5c(=O)[nH]nc5c4cc3-c3ccccc3)cc2)CCC1 [UM0130983:02, MK-2206 dihydrochloride]
  Inh (PKA): 6.14%

## Cc1ccc(C(=O)Nc2cccc(C(F)(F)F)c2)cc1Nc1nc(-c2cccnc2)nc2c1cnn2C [UM0130987:02, NVP-BHG712]
  Inh (PKA): 37.9%
